From PMC12057046, “Elucidation of short linear motif-based interactions of the MIT and rhodanese domains of the ubiquitin-specific protease 8” (Biology Direct, 2025) come the findings set out here.

The first assay concerns USP8 MIT domain. The experiment in a line: Peptide-phage display-based deep mutational scanning (DMS), USP8 MIT domain. The assay is classed as binding, human. Conditions: bait USP8_MIT__P40818_1_142; EFCAB12 (Q6NXP0) 2-17; pair of mutant with wild-type wt_00016 (MDDDYEAYHSLFLSLL); sheet S3.B_ProP-PD_pairs. Here is the method: The residues of these 16 amino acid-long wild-type peptides were substituted to all natural amino acid residues, except cysteine, in all positions (Supplementary Table S2A). The designed peptide sequences were reverse-translated to oligonucleotides optimized to the codon usage of E. coli. The required flanking regions (5´[…] and 3´[…]) were added for library construction. The library was generated as previously described.
Four rounds of phage selections were carried out using the second generation human disorderome library or the constructed deep mutational scanning library. At least three individual replicates were used for each bait protein. 10 µg of GST-tagged proteins or GST control (diluted in PBS from the stock of proteins kept in the purification elution buffer) were immobilized in 100 µL PBS on a 96-well MaxiSorp (Nunc) plate overnight at 4 °C. The plates were incubated with blocking buffer (with 0.5% BSA in PBS) for 1 h at 4 °C followed by washing with 0.05% Tween 20 in PBS four times. The naïve phage library (10^11 CFU) was diluted in 1/5th volume PEG/NaCl (20% PEG-8000, 0.4 M NaCl) and 1X PBS, incubated on ice for 10 min and centrifuged at 10,000 [drawing 3] g for 10 min. The pellet was resuspended in the volume of PBS (100 µL/ well). The GST-coated control plate was incubated with 100 µL library per well in PBS for 1 h at 4 °C to remove non-specific binders. The supernatant was transferred to the target wells and incubated for 2 h at 4 °C. The wells were washed five times with 0.05% Tween 20 in PBS and the bound phages were eluted with 100 µL per well log-phase E. coli OmniMAX by incubating at 37° C while shaking. After 30 min, M13KO7 helper phages were added and incubated for an additional 45 min. The bacterial cultures were transferred to 1 mL 2YT supplemented with 100 µg/mL carbenicillin, 30 µg/mL kanamycin and 0.3 mM IPTG and grew overnight at 37 °C while shaking. The following day the cultures were centrifuged for 10 min at 2,000 [drawing 4] g, 4 °C. 1/10th volume of 10 [drawing 5] PBS was added to adjust the pH and heated at 65 °C for 10 min. The phage pools from each round were used as in-phages for the next round of selections.
The samples were prepared for NGS as previously described. Peptide-coding regions of the enriched phage pools were amplified and barcoded using Phusion High-Fidelity PCR Master Mix (Thermo Fisher) for 22 cycles and confirmed by 2% agarose gel electrophoresis. The PCR products were normalized with 25 µL Mag-bind Total Pure NGS beads (Omega Biotek) and 10 µL of each eluted sample (Qiagen Elution Buffer) was pooled and cleaned-up with a PCR purification kit (Qiagen). The PCR product was confirmed by 2% agarose electrophoresis and the band was extracted with QIAquick Gel extraction Kit (Qiagen) and eluted with 30 µL TE buffer. The dsDNA was quantified using QuantiT PicoGreen dsDNA Assay Kit (Thermo Fisher) and sent for NGS (Illumina MiSeq v3, 1 × 150 bp read setup, 20% PhiX, NGI SciLifeLab facility, Sweden). The NGS data were demultiplexed, adapter regions were trimmed and sequences with an average quality of at least 20 were translated to peptide sequences. The NGS data were analysed using custom Python scripts. The total read NGS counts for each selection experiment of each peptide sequence were compiled and annotated in PepTools (https://slim.icr.ac.uk/tools/peptools/). Since ProP-PD is in essence a competition assay, the possibility of the input phage library influencing the selection outcome was explored. For this, the Pearson correlation coefficient, p-value and coefficient of determination were calculated for all peptide NGS count fractions in the library coverage vs. in the selections results (Supplementary Fig. S7; Supplementary Table S2B; Supplementary Table S3B; Supplementary Table S7B). Pearson correlation coefficient and p-value were calculated using Python’s SciPy library. […]
In turn, ADDDYEAYHSLFLSLL [mut_04321] had a hit_pair_ratio of 112.64. The same measure, in the same setting: with DDDDYEAYHSLFLSLL [mut_04322] the figure was 1.56; with EDDDYEAYHSLFLSLL [mut_04323], 6.98. Still for that read-out and setting: with FDDDYEAYHSLFLSLL [mut_04324] the figure was 112.64. Still for that read-out and setting: as for GDDDYEAYHSLFLSLL [mut_04325], the figure is 7.04; as for HDDDYEAYHSLFLSLL [mut_04326], 42.37. With IDDDYEAYHSLFLSLL [mut_04327], the hit_pair_ratio is given as 43.89. Consider LDDDYEAYHSLFLSLL [mut_04329], for which the hit_pair_ratio amounted to 1.88. Sequence MADDYEAYHSLFLSLL [mut_04339] came in with a hit_pair_ratio of 13.05.

Consider MDADYEAYHSLFLSLL [mut_04357], for which the hit_pair_ratio was found to be 1.08.

Regarding MDDDAEAYHSLFLSLL [mut_04393], the hit_pair_ratio is recorded as 42.41. MDDDDEAYHSLFLSLL [mut_04394]: the hit_pair_ratio was found to be 12.10. Regarding MDDDFEAYHSLFLSLL [mut_04396], the hit_pair_ratio was 37.55. Still for that read-out and setting: with MDDDGEAYHSLFLSLL [mut_04397] the figure was 12.55.

For MDDDHEAYHSLFLSLL [mut_04398], the hit_pair_ratio is on record as 169.63.

Sequence MDDDIEAYHSLFLSLL [mut_04399] registered a hit_pair_ratio of 3.38.

In the case of MDDDKEAYHSLFLSLL [mut_04400], the hit_pair_ratio stood at 168.96. For the sequence MDDDLEAYHSLFLSLL [mut_04401], the hit_pair_ratio is listed as 337.92. On the same count and under the same terms, as for MDDDQEAYHSLFLSLL [mut_04405], the figure is 14.11; as for MDDDVEAYHSLFLSLL [mut_04409], 337.92. Still for that read-out and setting: as for MDDDWEAYHSLFLSLL [mut_04410], the figure is 56.54. Take MDDDYAAYHSLFLSLL [mut_04411]: the hit_pair_ratio stood at 3.89. The same measure, in the same setting: with MDDDYDAYHSLFLSLL [mut_04412] the figure was 12.14.

The assay is the same for the next values; noted with them: sheet S3.B_ProP-PD_pairs; bait USP8_MIT__P40818_1_142; ratio within the wild-type/mutant pair, larger over smaller averaged fraction (direction from fraction_wt and fraction_mut).
AEVSDIESRIAALRAA: the hit_pair_ratio was 40.88. Still for that read-out and setting: as for EEVSDIESRIAALRAA, the figure is 7.79. Regarding FEVSDIESRIAALRAA, the hit_pair_ratio was 3.72. Regarding LEVSDIESRIAALRAA, the hit_pair_ratio is recorded as 16.71.

As to MDDDYEAFHSLFLSLL, the hit_pair_ratio came to 25.99. Same read-out and setting: as for MDDDYEAIHSLFLSLL, the figure is 132.20; as for MDDDYEALHSLFLSLL, 56.39. For MDDDYEAMHSLFLSLL, the hit_pair_ratio worked out at 337.92. Turning to MDDDYEANHSLFLSLL, the hit_pair_ratio turned out to be 42.28. As to MDDDYEASHSLFLSLL, the hit_pair_ratio was 112.64. On the same count and under the same terms, with MDDDYEATHSLFLSLL the figure was 17.79; with MDDDYEAVHSLFLSLL, 48.27; with MDDDYEAWHSLFLSLL, 1.40. Take MDDDYEAYASLFLSLL: the hit_pair_ratio is recorded as 5.54.

As for MDDDYEAYDSLFLSLL, the hit_pair_ratio is given as 337.92. As for MDDDYEAYFSLFLSLL, the hit_pair_ratio is listed as 29.21. For MDDDYEAYHALFLSLL, the hit_pair_ratio is recorded as 168.96. On to MDDDYEAYHDLFLSLL, for which the hit_pair_ratio amounted to 11.69. As to MDDDYEAYHELFLSLL, the hit_pair_ratio came out at 112.94. The same measure, in the same setting: as for MDDDYEAYHGLFLSLL, the figure is 10.26; as for MDDDYEAYHHLFLSLL, 11.27.

For the sequence MDDDYEAYHKLFLSLL, the hit_pair_ratio was found to be 169.63. Turning to MDDDYEAYHLLFLSLL, the hit_pair_ratio amounted to 17.79. Still for that read-out and setting: as for MDDDYEAYHMLFLSLL, the figure is 7.51; as for MDDDYEAYHNLFLSLL, 1.00. Still for that read-out and setting: as for MDDDYEAYHPLFLSLL, the figure is 19.88.

As to MDDDYEAYHQLFLSLL, the hit_pair_ratio turned out to be 337.92. On the same count and under the same terms, as for MDDDYEAYHRLFLSLL, the figure is 41.80; as for MDDDYEAYHSGFLSLL, 337.92.
